Assay results from patent publication US11485744B2, “High penetration prodrug compositions of antimicrobials and antimicrobial-related compounds” (priority 2009, dated 2022).
Values after ≈ are worked out from the molar mass of the structure shown. Where two headings read alike, the source gives them in different places. Blank lines part the entries; values can stand above or below the compound they belong to.

Experiments:
[1] = test system: E. faecalis; assay: MIC against E. faecalis; format: cell-based; conditions: Table 6c; for MIC: Enterococcus faecalis
[2] = test system: E. coli; assay: MIC against E. coli; conditions: for MIC: Escherichia coli, read-out: MIC, E. coli; for MIC, E. coli: Table 6c
[3] = test system: S. aureus; assay: MIC against S. aureus; conditions: for MIC: Staphylococcus aureus, read-out: MIC, S. aureus; for MIC, S. aureus: Table 6c
[4] = Conversion of HPPs to parent drugs in human plasma (half life); format: in vitro ADME
Protocol: HPPs of antimicrobials or antimicrobial-related compounds converted to the parent antimicrobials or antimicrobial-related compounds quickly in good yield in human plasma.
A HPP of antimicrobial or antimicrobial-related compound (10 mg) was dissolved in 0.1 ml of 0.2M pH 7.4 phosphate buffer. 1 ml of human plasma, preheated to 37° C., was added into the mixture. The mixture was kept in a water bath at 37° C., and at every 2 min intervals 0.2 ml of samples were withdrawn and added to 0.4 ml of methanol to precipitate the plasma protein.

[5] = test system: Aspergillus nidulans; assay: Antifungal MIC in vitro; format: cell-based
[6] = test system: Trichophyton mentagrophytes; assay: Antifungal MIC in vitro; format: cell-based
[7] = test system: Microsporum canis; assay: Antifungal MIC in vitro; format: cell-based
[8] = test system: Candida albicans; assay: Antifungal MIC in vitro; format: cell-based
[9] = test system: Aspergillus niger; assay: Antifungal MIC in vitro; format: cell-based
[10] = test system: Aspergillus tereus; assay: Antifungal MIC in vitro; format: cell-based
[11] = test system: Penicillium carylophilium; assay: Antifungal MIC in vitro; format: cell-based
[12] = test system: Fusarium oxisporum; assay: Antifungal MIC in vitro; format: cell-based
[13] = test system: Fusarium aquaductum; assay: Antifungal MIC in vitro; format: cell-based
[14] = test system: Aspergillus giganteus; assay: Antifungal MIC in vitro; format: cell-based
[15] = Clinical cure of cow mastitis, topical treatment; format: in vivo, lactating dairy cows; conditions: cows, 500 mg in 10 ml pH 7.4 phosphate buffer sprayed on skin of udder twice per day
Protocol: (§1) 90 lactating dairy cows were recruited. Bacteriological cure was considered to have been achieved if the samples taken from the affected quarter on day 17 and day 22 were free of the bacterial species isolated in the pretreatment sample. Clinical cure was defined as the disappearance of clinical signs of disease which were observed on day 1 before treatment, in other words by the return to normal feed intake, rectal temperature<39.0° C., good general condition, absence of udder edema, normal milk appearance, and normal milk yield.

[16] = test system: Coagulase-negative staphylococci; assay: Bacteriological cure of cow mastitis, topical treatment; format: in vivo; conditions: cows, day 22, topical 500 mg twice per day
Protocol: as §1

[17] = test system: E. coli; assay: as above; format: in vivo; conditions: cows, day 22, topical 500 mg twice per day
Protocol: as §1

[18] = test system: Enterobacteriaceae; assay: as above; format: in vivo; conditions: cows, day 22, topical 500 mg twice per day
Protocol: as §1

[19] = test system: Staphylococcus aureus; assay: as above; format: in vivo; conditions: cows, day 22, topical 500 mg twice per day
Protocol: as §1

[20] = test system: Streptococcus uberis; assay: as above; format: in vivo; conditions: cows, day 22, topical 500 mg twice per day
Protocol: as §1

[21] = In vitro penetration across isolated human skin in modified Franz cells
Protocol: Penetration rates of HPPs and their parent drugs through human skin were measured in vitro by modified Franz cells. A Franz cell had two chambers, the top sample chamber and the bottom receiving chamber. The human skin tissue (360-400 μm thick) that separated the top and the receiving chambers was isolated from the anterior or posterior thigh areas.
A test compound (2 mL, 10% in 0.2 M phosphate buffer, pH 7.4) was added to the sample chamber of a Franz cell. The receiving chamber contained 10 ml of 0.2 M phosphate buffer which was stirred at 600 rpm. The amount of the tested compound penetrating the skin was determined by high-performance liquid chromatography (HPLC) method.

[22] = test system: methicillin-resistant Staphylococcus aureus (MRSA); assay: MIC against MRSA; format: cell-based; conditions: Table 6a
[23] = test system: K. pneumonlae; assay: MIC against K. pneumonlae; format: cell-based; conditions: Table 6b; combinations antibiotic/inhibitor
[24] = test system: E. cloacae; assay: MIC against E. cloacae; format: cell-based; conditions: Enterobacter cloacae; Table 6b; combinations antibiotic/inhibitor
[25] = test system: B. fragilis; assay: MIC against B. fragilis; format: cell-based; conditions: Bacteroides fragilis; Table 6b; combinations antibiotic/inhibitor
[26] = Staphylococcus aureus, MRSA, read-out: MIC

Compound: Cc1noc(NS(=O)(=O)c2ccc(N)cc2)c1C [Sulfisoxazole]
- MIC [1]: 55 µg/mL (≈ 206 µM)
- MIC [2]: 16 µg/mL (≈ 59.9 µM)
- MIC [3]: 64 µg/mL (≈ 239 µM)

Compound: CCN(CC)CCOC(=O)C1N2C(=O)C(NC(=O)c3c(OC)cccc3OC)C2SC1(C)C.Cl (stereo not drawn) [methicillin-DEE, 6-(2,6-dimethoxybenzamido)penicillinic acid 2-diethylaminoethyl ester hydrochloride]
- Half life of HPPs in plasma ([4]; human plasma, 37° C.): 10 ± 1 min
- Minimum inhibitory concentration, Aspergillus nidulans [5]: 8 µg/mL
- Minimum inhibitory concentration, Trichophyton mentagrophytes [6]: 22 µg/mL
- Minimum inhibitory concentration, Microsporum canis [7]: 8 µg/mL
- Minimum inhibitory concentration, Candida albicans [8]: 16 µg/mL
- Minimum inhibitory concentration, Aspergillus niger [9]: 9 µg/mL
- Minimum inhibitory concentration, Aspergillus tereus [10]: 12 µg/mL
- Minimum inhibitory concentration, Penicillium carylophilium [11]: 9 µg/mL
- Minimum inhibitory concentration, Fusarium oxisporum [12]: 8 µg/mL
- Minimum inhibitory concentration, Fusarium aquaductum [13]: 10 µg/mL
- Minimum inhibitory concentration, Aspergillus giganteus [14]: 9 µg/mL
- Clinical Cure Rate, Day 3 [15]: 43%
- Clinical Cure Rate, Day 8 [15]: 90%
- Clinical Cure Rate, Day 15 [15]: 97%
- Clinical Cure Rate, Day 22 [15]: 100%
- Bacteriological cure rate, Coagulase-negative staphylococci [16]: 85.7%
- Bacteriological cure, No. cured, Coagulase-negative staphylococci [16]: 6
- Bacteriological cure rate, E. coli [17]: 80%
- Bacteriological cure, No. cured, E. coli [17]: 8
- Bacteriological cure rate, Enterobacteriaceae [18]: 75%
- Bacteriological cure, No. cured, Enterobacteriaceae [18]: 6
- Bacteriological cure rate, Staphylococcus aureus [19]: 80%
- Bacteriological cure, No. cured, Staphylococcus aureus [19]: 4
- Bacteriological cure rate, Streptococcus uberis [20]: 70%
- Bacteriological cure, No. cured, Streptococcus uberis [20]: 7

Compound: CCCCOC(=O)c1cn(C2CC2)c2cc(N3CCNCC3)c(F)cc2c1=O.Cl [ciprofloxacin-BE, 1-cyclopropyl-6-fluoro-4-oxo-7-piperazin-1-yl-quinoline-3-carboxylic acid butyl ester•HCl salt]
- In vitro Penetration Rate (apparent flux), HPPs of sulfonamides, sulfones, quinolones ([21]; pH 7.4): 0.29 ± 0.02 mg/cm^2/h
- MIC, E. faecalis [1]: 0.05 µg/mL
- MIC, E. coli [2]: 0.2 µg/mL
- MIC, S. aureus [3]: 5 µg/mL

Compound: CCN(CC)CCOC(=O)c1cn(CC)c2nc(C)ccc2c1=O.Cl [nalidixic acid-DEE, 1-ethyl-7-methyl-4-oxo-[1,8]naphthyridine-3-carboxylic acid N,N-diethylaminoethyl ester•HCl salt]
- In vitro Penetration Rate (apparent flux), HPPs of sulfonamides, sulfones, quinolones ([21]; pH 7.4): 0.25 ± 0.04 mg/cm^2/h
- MIC, E. faecalis [1]: 1 µg/mL
- MIC, E. coli [2]: 0.2 µg/mL
- MIC, S. aureus [3]: 5 µg/mL

Compound: O=C(O)c1cn(C2CC2)c2cc(N3CCNCC3)c(F)cc2c1=O [Ciprofloxacin, 1-cyclopropyl-6-fluoro-4-oxo-7-piperazin-1-yl-quinoline-3-carboxylic acid]
- MIC [1]: 2 µg/mL (≈ 6.04 µM)
- MIC [2]: 10 µg/mL (≈ 30.2 µM)
- MIC [3]: 128 µg/mL (≈ 386 µM)

Compound: CCN(CC)CCOC(=O)C1=CCSC2C(NC(=O)C(=NOC)c3csc(NC(C)=O)n3)C(=O)N12.Cl (stereo not drawn) [ceftizoxime-DEE, 7-[[(2-acetylamino-4-thiazolyl)(methoxyimino)acetyl]amino]-8-oxo-5-thia-1-azabicyclo[4.2.0]oct-2-ene-2-carboxylic acid 2-diethylaminoethyl ester hydrochloride]
- In vitro Penetration Rate (apparent flux), HPPs ([21]; human, 10 %, pH 7.4): 0.62 ± 0.05 mg/cm^2/h
- half-life at 9.1 mg/mL ([4]; human, plasma, pH 7.4): 11 min
- MIC [22, 26]: 0.5 µg/mL
- MIC ([5]; Aspergillus nidulans, read-out: Minimum inhibitory concentration, Aspergillus nidulans): 4 µg/mL
- MIC ([6]; Trichophyton mentagrophytes, read-out: Minimum inhibitory concentration, Trichophyton mentagrophytes): 9 µg/mL
- MIC ([7]; Microsporum canis, read-out: Minimum inhibitory concentration, Microsporum canis): 2 µg/mL
- MIC ([8]; Candida albicans, read-out: Minimum inhibitory concentration, Candida albicans): 8 µg/mL
- MIC ([9]; Aspergillus niger, read-out: Minimum inhibitory concentration, Aspergillus niger): 4 µg/mL
- MIC ([10]; Aspergillus, read-out: Minimum inhibitory concentration, Aspergillus tereus): 4 µg/mL
- MIC ([11]; Penicillium, read-out: Minimum inhibitory concentration, Penicillium carylophilium): 3 µg/mL
- MIC ([12]; Fusarium, read-out: Minimum inhibitory concentration, Fusarium oxisporum): 5 µg/mL
- MIC ([13]; Fusarium, read-out: Minimum inhibitory concentration, Fusarium aquaductum): 3 µg/mL
- MIC ([14]; Aspergillus giganteus, read-out: Minimum inhibitory concentration, Aspergillus giganteus): 5 µg/mL
- Clinical Cure Rate, Day 3 [15]: 53%
- Clinical Cure Rate, Day 8 [15]: 93%
- Clinical Cure Rate, Day 15 [15]: 99%
- Clinical Cure Rate, Day 22 [15]: 100%
- Bacteriological cure rate, Coagulase-negative staphylococci [16]: 87.5%
- Bacteriological cure, No. cured, Coagulase-negative staphylococci [16]: 7
- Bacteriological cure rate, E. coli [17]: 87.5%
- Bacteriological cure, No. cured, E. coli [17]: 7
- Bacteriological cure rate, Enterobacteriaceae [18]: 83.3%
- Bacteriological cure, No. cured, Enterobacteriaceae [18]: 5
- Bacteriological cure rate, Staphylococcus aureus [19]: 83%
- Bacteriological cure, No. cured, Staphylococcus aureus [19]: 5
- Bacteriological cure rate, Streptococcus uberis [20]: 82%
- Bacteriological cure, No. cured, Streptococcus uberis [20]: 9

Compound: CCn1cc(C(=O)O)c(=O)c2ccc(C)nc21 [nalidixic acid, 1-ethyl-7-methyl-4-oxo-[1,8]naphthyridine-3-carboxylic acid]
- MIC [1]: 64 µg/mL (≈ 276 µM)
- MIC [2]: 6 µg/mL (≈ 25.8 µM)
- MIC [3]: 158 µg/mL (≈ 680 µM)

- MIC [22]: 1 µg/mL
Compound: CC1(C)SC2C(NC(=O)COc3ccccc3)C(=O)N2C1C(=O)OCCN1CCCCC1.Cl (stereo not drawn) [penicillin V-PEE, 6-phenoxyacetacetamidopenicillanic acid 1-piperidineethyl ester hydrochloride]

Compound: penicillin V [reference compound]
- MIC [22]: 3524 µg/mL

- In vitro Penetration Rate (apparent flux), Parent compounds ([21]; Table 1a, isolated human skin, Franz cells, 10% in 0.2 M phosphate buffer pH 7.4, n=5): <0.015 mg/cm^2/h
- MIC [23]: 0.3 µg/mL
- MIC [24]: 5 µg/mL
- MIC [25]: 68 µg/mL
Compound: CC1(C)S[C@@H]2[C@H](NC(=O)[C@H](N)c3ccccc3)C(=O)N2[C@H]1C(=O)O [Ampicillin]

- In vitro Penetration Rate (apparent flux), Parent compounds ([21]; human, 10 %, pH 7.4): <0.001 mg/cm^2/h
- MIC [22, 26]: 2160 µg/mL (≈ 5670 µM)
Compound: COc1cccc(OC)c1C(=O)N[C@@H]1C(=O)N2[C@@H]1SC(C)(C)[C@@H]2C(=O)O [Methicillin, reference compound]

Compound: CCN(CC)CCOC(=O)C1N2C(=O)C(NC(=O)COc3ccccc3)C2SC1(C)C.Cl (stereo not drawn) [penicillin V-DEE, 6-phenoxyacetacetamidopenicillanic acid 2-diethylaminoethyl ester hydrochloride]
- In vitro Penetration Rate (apparent flux), HPPs ([21]; pH 7.4): 0.72 ± 0.06 mg/cm^2/h
- Half life of HPPs in plasma ([4]; human, plasma): 8 ± 1 min
- Minimum inhibitory concentration, Aspergillus nidulans [5]: 3 µg/mL
- Minimum inhibitory concentration, Trichophyton mentagrophytes [6]: 12 µg/mL
- Minimum inhibitory concentration, Microsporum canis [7]: 2 µg/mL
- Minimum inhibitory concentration, Candida albicans [8]: 7 µg/mL
- Minimum inhibitory concentration, Aspergillus niger [9]: 3 µg/mL
- Minimum inhibitory concentration, Aspergillus tereus [10]: 2 µg/mL
- Minimum inhibitory concentration, Penicillium carylophilium [11]: 2 µg/mL
- Minimum inhibitory concentration, Fusarium oxisporum [12]: 3 µg/mL
- Minimum inhibitory concentration, Fusarium aquaductum [13]: 2 µg/mL
- Minimum inhibitory concentration, Aspergillus giganteus [14]: 3 µg/mL
- Clinical Cure Rate, Day 3 [15]: 50%
- Clinical Cure Rate, Day 8 [15]: 90%
- Clinical Cure Rate, Day 15 [15]: 93%
- Clinical Cure Rate, Day 22 [15]: 97%
- Bacteriological cure rate, Coagulase-negative staphylococci [16]: 78%
- Bacteriological cure, No. cured, Coagulase-negative staphylococci [16]: 7
- Bacteriological cure rate, E. coli [17]: 87.5%
- Bacteriological cure, No. cured, E. coli [17]: 7
- Bacteriological cure rate, Enterobacteriaceae [18]: 85.7%
- Bacteriological cure, No. cured, Enterobacteriaceae [18]: 6
- Bacteriological cure rate, Staphylococcus aureus [19]: 67%
- Bacteriological cure, No. cured, Staphylococcus aureus [19]: 4
- Bacteriological cure rate, Streptococcus uberis [20]: 80%
- Bacteriological cure, No. cured, Streptococcus uberis [20]: 8

- In vitro Penetration Rate (apparent flux), Parent compounds ([21]; human, 10 %, pH 7.4): <0.010 mg/cm^2/h
- MIC [22, 26]: 2790 µg/mL (≈ 7270 µM)
Compound: CO/N=C(\C(=O)N[C@@H]1C(=O)N2C(C(=O)O)=CCS[C@H]12)c1csc(N)n1 [Ceftizoxime, reference compound]

- MIC [23]: 0.5 µg/mL
- MIC [24]: 1 µg/mL
- MIC [25]: 8 µg/mL
Compound: CO/N=C(\C(=O)N[C@@H]1C(=O)N2C(C(=O)O)=C(CSc3nc(=O)c(=O)[nH]n3C)CS[C@H]12)c1csc(N)n1 [Ceftriaxone]
